What was measured:
NUAK1 = biological target: T1, NUAK1 (Homo sapiens, UniProt O60285); assay: Enzyme activity inhibition test, kinase activity assay based on P81 filter paper binding hot-spot technique; type: biochemical; conditions: final concentration of NUAK1 10 nM; 20 µM CHKtide peptide substrate; 33P-labeled ATP; 2 hours at room temperature; read-out: IC50 (nM) of Test Compounds against NUAK1
T1 sequence (O60285 1-661): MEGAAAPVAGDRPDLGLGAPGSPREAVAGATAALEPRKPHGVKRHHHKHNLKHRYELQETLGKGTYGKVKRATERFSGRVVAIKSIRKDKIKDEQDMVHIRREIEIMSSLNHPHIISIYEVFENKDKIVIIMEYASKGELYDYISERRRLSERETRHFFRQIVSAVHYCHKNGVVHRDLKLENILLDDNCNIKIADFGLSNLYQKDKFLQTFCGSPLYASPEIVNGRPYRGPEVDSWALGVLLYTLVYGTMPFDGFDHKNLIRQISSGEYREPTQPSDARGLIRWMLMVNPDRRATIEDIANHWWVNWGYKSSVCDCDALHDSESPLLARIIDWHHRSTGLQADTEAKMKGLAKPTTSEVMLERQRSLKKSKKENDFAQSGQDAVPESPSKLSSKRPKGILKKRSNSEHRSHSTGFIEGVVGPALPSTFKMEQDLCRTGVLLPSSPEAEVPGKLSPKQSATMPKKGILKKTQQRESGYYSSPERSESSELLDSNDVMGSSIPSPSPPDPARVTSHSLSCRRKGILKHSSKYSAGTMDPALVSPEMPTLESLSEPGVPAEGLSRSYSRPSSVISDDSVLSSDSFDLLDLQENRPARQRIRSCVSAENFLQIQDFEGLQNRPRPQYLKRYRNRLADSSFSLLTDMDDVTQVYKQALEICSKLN
Method: (§1) Test Example: Enzyme Activity Inhibition Test of NUAK1/NUAK2 Kinase Inhibitors
(§2) The inhibitory activity of the pyrimidinamine small molecules involved in the present application against NUAK1 and NUAK2 kinases was determined using a kinase activity assay based on the P81 filter paper binding hot-spot technique (Nat Biotechnol. 2011, 29:1039). A brief description is as follows:
(§3) The assay buffer system contained 20 mM Hepes (pH 7.5), 10 mM MgCl2, 1 mM EGTA, 0.01% Brij35 (L23 polyoxyethylene lauryl ether), 0.02 mg/mL BSA (bovine serum albumin), 0.1 mM Na3VO4, 2 mM DTT, and 1% DMSO.
(§4) • 1. A 20 µM substrate solution was prepared with freshly prepared test buffer and CHKtide peptide fragments (Sanchez Y. Science. 1997, 277: 1497-1501) were used as a substrate. • 2. Kinases were added and mixed gently (a final concentration of NUAK1 was 10 nM; and a final concentration of NUAK2 was 50 nM). • 3. Test compounds dissolved in 100% DMSO were each added to the above kinase reaction mixture solution via Acoustic Droplet Ejection (Echo550; nanoliter) and the mixture was incubated for 5 minutes at room temperature. • 4. ^33P-labeled ATP (a ratio of unlabeled ATP to labeled ATP was 25:1 or 2.5:1) was added. • 5. The mixture was incubated for 2 hours at room temperature. • 6. Kinase activity was tested using the P81 filter paper combined with hotspot technology.
(§5) The IC50 values of the test compounds against NUAK1/NUAK2 were calculated according to the above test. For specific results, see Table 1.
(§6) The IC50 values were calculated by using a formula derived from sigmoidal dose-response curve (variable slope): Y = Bottom + (Top−Bottom)/(1+10^(∧)((LogEC50−X)*Slope, [formula] where X is the logarithm of compound concentration, Y is the response (inhibition rate of kinase activity), and Y rises from bottom to top along the sigmoidal curve as the concentration increases. Table 1: IC50 (nM) of Test Compounds of the Present Application against NUAK1/NUAK2

NUAK2 = biological target: T2, NUAK2 (Homo sapiens, UniProt Q9H093); assay: as above; type: biochemical; conditions: final concentration of NUAK2 50 nM; 20 µM CHKtide peptide substrate; 33P-labeled ATP; 2 hours at room temperature; read-out: IC50 (nM) of Test Compounds against NUAK2
T2 sequence (Q9H093 1-628): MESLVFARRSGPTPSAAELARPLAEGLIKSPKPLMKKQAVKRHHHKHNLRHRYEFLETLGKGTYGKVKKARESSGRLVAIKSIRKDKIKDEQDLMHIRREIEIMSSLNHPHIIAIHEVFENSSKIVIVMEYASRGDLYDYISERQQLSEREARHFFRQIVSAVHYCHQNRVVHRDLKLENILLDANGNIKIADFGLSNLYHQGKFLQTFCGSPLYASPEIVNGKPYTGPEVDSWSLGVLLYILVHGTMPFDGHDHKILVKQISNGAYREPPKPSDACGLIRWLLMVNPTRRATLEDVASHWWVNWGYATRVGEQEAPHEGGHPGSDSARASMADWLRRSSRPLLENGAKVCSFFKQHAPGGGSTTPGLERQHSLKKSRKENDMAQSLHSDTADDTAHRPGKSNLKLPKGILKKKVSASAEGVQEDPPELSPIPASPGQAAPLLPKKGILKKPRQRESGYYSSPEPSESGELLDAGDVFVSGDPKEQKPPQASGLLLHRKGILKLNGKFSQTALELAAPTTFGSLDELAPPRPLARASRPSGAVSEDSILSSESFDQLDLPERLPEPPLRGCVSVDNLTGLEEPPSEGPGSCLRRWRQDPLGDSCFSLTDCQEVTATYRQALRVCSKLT
Method: as §1, §2, §3, §4, §5, §6

Row | SMILES | IC50 (NUAK1) [nM] | IC50 (NUAK2) [nM]
1 | CC1(NC(=O)[C@@H]2CC2(F)F)CCN(c2nc(Nc3cnn(C4CCNCC4)c3)ncc2Cl)CC1 | 1.24 | 2.76
2 | CC1(NS(=O)(=O)C2CC2)CCN(c2ccnc(Nc3cnn(C4CCNCC4)c3)n2)CC1 [TDM-181137] | 71 | 29
3 | CC1(NC(=O)[C@@H]2CC2(F)F)CCN(c2ccnc(Nc3cnn(C4CCNCC4)c3)n2)CC1 [TDM-181163] | 30 | 15
4 | CN1CCN(c2ccc(Nc3nccc(N4CCC(C)(NC(=O)[C@@H]5CC5(F)F)CC4)n3)cc2)CC1 [TDM-181164, (S)-2,2-Difluoro-N-(4-methyl-1-(2-((4-(4-methylpiperazin-1-yl)phenyl)amino)pyrimidin-4-yl)piperidin-4-yl)cyclopropane-1-carboxamide] | 6 | 15
5 | CN1CCN(c2ccc(Nc3nccc(N4CCC(C)(NS(=O)(=O)C5CC5)CC4)n3)cc2)CC1 [TDM-181165, N-(4-methyl-1-(2-((4-(4-methylpiperazin-1-yl)phenyl)amino)pyrimidin-4-yl)piperidin-4-yl)cyclopropanesulfonamide] | 39 | 72
6 | CN1CCN(c2ccc(Nc3ncc(Cl)c(N4CCC(C)(NS(=O)(=O)C5CC5)CC4)n3)cc2)CC1 [TDM-181173, N-(1-(5-chloro-2-((4-(4-methylpiperazin-1-yl)phenyl)amino)pyrimidin-4-yl)-4-methylpiperidin-4-yl)cyclopropanesulfonamide] | 1 | 3
7 | CN1CCN(c2ccc(Nc3ncc(Cl)c(N4CCC(C)(NC(=O)[C@@H]5CC5(F)F)CC4)n3)cc2)CC1 [TDM-181174, (S)-N-(1-(5-chloro-2-((4-(4-methylpiperazin-1-yl)phenyl)amino)pyrimidin-4-yl)-4-methylpiperidin-4-yl)-2,2-difluorocyclopropanecarboxamide] | 0.46 | 1.44
8 | COc1cc(N2CCN(C)CC2)ccc1Nc1ncc(Cl)c(N2CCC(C)(NS(=O)(=O)C3CC3)CC2)n1 [TDM-181175, N-(1-(5-chloro-2-((2-methoxy-4-(4-methylpiperazin-1-yl)phenyl)amino)pyrimidin-4-yl)4-methylpiperidin-4-yl)cyclopropanesulfonamide] | 20 | 13
9 | CN1CCN(c2ccc(Nc3ncc(Cl)c(CN4CCC(C)(NC(=O)[C@@H]5CC5(F)F)CC4)n3)cc2)CC1 [TDM-181182, (S)-N-(1-((5-chloro-2-((4-(4-methylpiperazin-1-yl)phenyl)amino)pyrimidin-4-yl)methyl)-4-methylpiperidin-4-yl)-2,2-difluorocyclopropane-1-carboxamide] | 679 | 
10 | CN1CCN(c2ccc(Nc3ncc(Cl)c(CN4CCC(C)(NS(=O)(=O)C5CC5)CC4)n3)cc2)CC1 [TDM-181183, N-(1-((5-chloro-2-((4-(4-methylpiperazin-1-yl)phenyl)amino)pyrimidin-4-yl)methyl)-4-methylpiperidin-4-yl)cyclopropanesulfonamide] | 69 | 
11 | CC1(NC(=O)[C@@H]2CC2(F)F)CCN(Cc2nc(Nc3cnn(C4CCNCC4)c3)ncc2Cl)CC1 [TDM-181186, (S)-N-(1-((5-chloro-2-((1-(piperidin-4-yl)-1H-pyrazol-4-yl)amino)pyrimidin-4-yl)methyl)-4-methylpiperidin-4-yl)-2,2-difluorocyclopropane-1-carboxamide] | 959 | 
